Test results: ChEMBL document CHEMBL1201862, “PubChem BioAssay data set” (2004)
Activity calls are given as the source filed them.

How the values were obtained:
[1] = P. falciparum Dd2 growth inhibitors, dose response, SYBR Green, dry powder samples (AID 1159566); type: functional, cell-based;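 note: potency for growth inhibition with lower SYBR green DNA signal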
[2] = P. falciparum Dd2 growth inhibitors, dose response, SYBR Green, cherry-picked samples (AID 1159567); type: functional, cell-based
[3] = HepG2 cell cytotoxicity, dose response, cytotoxicity control, plate reader, dry powder samples (AID 1159569); type: functional, cell-based;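 note: inhibitor potency with signal falling toward the positive control level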
[4] = P. falciparum ATP4 D1247Y mutant growth inhibitors, dose response, NITD609-resistant line, SYBR Green, dry powder (AID 1159571); type: functional, cell-based;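 note: parasites synchronized at ring stage by sorbitol before testing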
[5] = P. falciparum 3D7-ScDHODH growth inhibitors, dose response, SYBR Green, dry powder samples (AID 1159570); type: functional, cell-based;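 note: parasite growth measured after 72 hours of compound exposure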
[6] = target: T1, E3 ubiquitin-protein ligase XIAP (Homo sapiens, UniProt P98170); test: Counter Screen using XIAP-Bir3 for Chemical Antagonists of Bir1/2 domains of IAP-family anti-apoptotic proteins. [Related pubchem assays (depositor defined):AID1018, AID1449, AID1514, AID1638, AID1749, AID1750, AID488957, AID488963]
[7] = target: T1, E3 ubiquitin-protein ligase XIAP; test: XIAP antagonists, biochemical, IAP family, fluorescence polarization (AID 1018); type: functional
[8] = target: T2, 1-phosphatidylinositol 4,5-bisphosphate phosphodiesterase gamma-1 (Homo sapiens, UniProt P19174); test: Counterscreen for inhibitors of phospholipase C isozymes (PLC-B3): Fluorescence-based biochemical high throughput dose response assay to identify inhibitors of phospholipase C isozymes (PLC-gamma1).
T2 sequence (P19174 whole entry): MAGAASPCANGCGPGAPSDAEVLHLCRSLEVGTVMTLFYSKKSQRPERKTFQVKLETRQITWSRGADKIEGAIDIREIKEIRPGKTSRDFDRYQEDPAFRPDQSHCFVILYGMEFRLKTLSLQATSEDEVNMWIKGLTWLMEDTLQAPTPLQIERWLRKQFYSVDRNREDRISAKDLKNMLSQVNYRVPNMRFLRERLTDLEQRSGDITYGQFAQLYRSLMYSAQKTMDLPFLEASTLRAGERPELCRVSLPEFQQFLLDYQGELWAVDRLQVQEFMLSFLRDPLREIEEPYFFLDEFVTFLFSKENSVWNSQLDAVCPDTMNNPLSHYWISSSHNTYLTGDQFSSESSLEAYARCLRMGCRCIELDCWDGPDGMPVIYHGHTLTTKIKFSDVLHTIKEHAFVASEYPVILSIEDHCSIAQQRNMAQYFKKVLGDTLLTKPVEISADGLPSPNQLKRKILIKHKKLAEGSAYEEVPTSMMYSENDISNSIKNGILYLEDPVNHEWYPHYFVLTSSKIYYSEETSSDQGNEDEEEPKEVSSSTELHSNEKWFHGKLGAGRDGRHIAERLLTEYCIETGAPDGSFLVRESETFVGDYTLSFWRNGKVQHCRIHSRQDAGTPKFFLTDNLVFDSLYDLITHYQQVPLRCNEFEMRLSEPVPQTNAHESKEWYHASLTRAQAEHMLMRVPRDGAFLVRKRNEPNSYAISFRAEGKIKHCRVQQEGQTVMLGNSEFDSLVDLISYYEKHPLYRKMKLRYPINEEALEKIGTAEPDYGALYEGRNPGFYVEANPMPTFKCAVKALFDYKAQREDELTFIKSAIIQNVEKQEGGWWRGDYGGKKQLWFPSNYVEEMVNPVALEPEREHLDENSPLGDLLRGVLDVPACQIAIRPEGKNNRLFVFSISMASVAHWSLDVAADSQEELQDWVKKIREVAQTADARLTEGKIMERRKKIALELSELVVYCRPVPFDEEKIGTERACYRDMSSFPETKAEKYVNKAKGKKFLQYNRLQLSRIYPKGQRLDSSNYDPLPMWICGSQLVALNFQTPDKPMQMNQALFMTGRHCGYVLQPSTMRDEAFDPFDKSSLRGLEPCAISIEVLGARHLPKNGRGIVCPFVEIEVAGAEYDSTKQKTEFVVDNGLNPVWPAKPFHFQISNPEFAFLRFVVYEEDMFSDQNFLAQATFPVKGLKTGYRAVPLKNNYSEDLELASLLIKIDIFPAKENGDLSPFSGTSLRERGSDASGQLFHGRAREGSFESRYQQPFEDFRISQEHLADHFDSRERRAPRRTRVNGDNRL

[9] = target: T3, 1-phosphatidylinositol 4,5-bisphosphate phosphodiesterase beta-3 (Homo sapiens, UniProt Q01970); test: Fluorescence-based biochemical high throughput dose response assay to identify inhibitors of phospholipase C isozymes (PLC-B3).
T3 sequence (Q01970 whole entry): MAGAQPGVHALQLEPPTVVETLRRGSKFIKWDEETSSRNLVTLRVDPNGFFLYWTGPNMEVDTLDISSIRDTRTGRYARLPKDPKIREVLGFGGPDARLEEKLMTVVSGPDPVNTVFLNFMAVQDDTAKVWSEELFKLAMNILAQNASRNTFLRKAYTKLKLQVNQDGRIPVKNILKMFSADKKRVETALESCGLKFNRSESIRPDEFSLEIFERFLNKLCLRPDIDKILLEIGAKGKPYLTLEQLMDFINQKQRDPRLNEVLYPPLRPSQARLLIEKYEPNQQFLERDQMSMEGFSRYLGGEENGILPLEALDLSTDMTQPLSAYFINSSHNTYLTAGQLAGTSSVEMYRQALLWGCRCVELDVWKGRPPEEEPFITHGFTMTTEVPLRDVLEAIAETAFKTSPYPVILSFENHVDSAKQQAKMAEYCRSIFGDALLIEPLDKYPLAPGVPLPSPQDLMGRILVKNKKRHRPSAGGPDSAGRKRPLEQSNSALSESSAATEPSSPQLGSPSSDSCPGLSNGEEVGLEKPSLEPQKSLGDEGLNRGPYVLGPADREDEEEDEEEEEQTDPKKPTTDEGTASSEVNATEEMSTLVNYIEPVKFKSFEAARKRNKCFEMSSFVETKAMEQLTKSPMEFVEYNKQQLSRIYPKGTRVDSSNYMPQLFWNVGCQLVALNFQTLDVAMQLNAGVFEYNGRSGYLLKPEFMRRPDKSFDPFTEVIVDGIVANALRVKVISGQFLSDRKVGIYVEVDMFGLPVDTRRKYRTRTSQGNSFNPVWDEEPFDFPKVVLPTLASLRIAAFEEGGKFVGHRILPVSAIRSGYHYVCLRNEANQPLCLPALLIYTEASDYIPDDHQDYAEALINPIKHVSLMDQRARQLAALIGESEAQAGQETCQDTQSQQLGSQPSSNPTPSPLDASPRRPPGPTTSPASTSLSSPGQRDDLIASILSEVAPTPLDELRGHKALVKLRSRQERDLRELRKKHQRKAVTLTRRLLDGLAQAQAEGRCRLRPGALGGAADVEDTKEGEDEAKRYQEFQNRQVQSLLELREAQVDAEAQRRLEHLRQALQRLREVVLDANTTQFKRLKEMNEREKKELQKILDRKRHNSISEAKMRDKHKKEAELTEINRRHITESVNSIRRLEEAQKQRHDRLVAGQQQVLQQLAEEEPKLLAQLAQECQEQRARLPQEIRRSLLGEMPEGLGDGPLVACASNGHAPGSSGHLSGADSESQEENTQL

[10] = target: T4, Histone-lysine N-methyltransferase NSD2 (Homo sapiens, UniProt O96028); type: biochemical
T4 sequence (O96028 whole entry): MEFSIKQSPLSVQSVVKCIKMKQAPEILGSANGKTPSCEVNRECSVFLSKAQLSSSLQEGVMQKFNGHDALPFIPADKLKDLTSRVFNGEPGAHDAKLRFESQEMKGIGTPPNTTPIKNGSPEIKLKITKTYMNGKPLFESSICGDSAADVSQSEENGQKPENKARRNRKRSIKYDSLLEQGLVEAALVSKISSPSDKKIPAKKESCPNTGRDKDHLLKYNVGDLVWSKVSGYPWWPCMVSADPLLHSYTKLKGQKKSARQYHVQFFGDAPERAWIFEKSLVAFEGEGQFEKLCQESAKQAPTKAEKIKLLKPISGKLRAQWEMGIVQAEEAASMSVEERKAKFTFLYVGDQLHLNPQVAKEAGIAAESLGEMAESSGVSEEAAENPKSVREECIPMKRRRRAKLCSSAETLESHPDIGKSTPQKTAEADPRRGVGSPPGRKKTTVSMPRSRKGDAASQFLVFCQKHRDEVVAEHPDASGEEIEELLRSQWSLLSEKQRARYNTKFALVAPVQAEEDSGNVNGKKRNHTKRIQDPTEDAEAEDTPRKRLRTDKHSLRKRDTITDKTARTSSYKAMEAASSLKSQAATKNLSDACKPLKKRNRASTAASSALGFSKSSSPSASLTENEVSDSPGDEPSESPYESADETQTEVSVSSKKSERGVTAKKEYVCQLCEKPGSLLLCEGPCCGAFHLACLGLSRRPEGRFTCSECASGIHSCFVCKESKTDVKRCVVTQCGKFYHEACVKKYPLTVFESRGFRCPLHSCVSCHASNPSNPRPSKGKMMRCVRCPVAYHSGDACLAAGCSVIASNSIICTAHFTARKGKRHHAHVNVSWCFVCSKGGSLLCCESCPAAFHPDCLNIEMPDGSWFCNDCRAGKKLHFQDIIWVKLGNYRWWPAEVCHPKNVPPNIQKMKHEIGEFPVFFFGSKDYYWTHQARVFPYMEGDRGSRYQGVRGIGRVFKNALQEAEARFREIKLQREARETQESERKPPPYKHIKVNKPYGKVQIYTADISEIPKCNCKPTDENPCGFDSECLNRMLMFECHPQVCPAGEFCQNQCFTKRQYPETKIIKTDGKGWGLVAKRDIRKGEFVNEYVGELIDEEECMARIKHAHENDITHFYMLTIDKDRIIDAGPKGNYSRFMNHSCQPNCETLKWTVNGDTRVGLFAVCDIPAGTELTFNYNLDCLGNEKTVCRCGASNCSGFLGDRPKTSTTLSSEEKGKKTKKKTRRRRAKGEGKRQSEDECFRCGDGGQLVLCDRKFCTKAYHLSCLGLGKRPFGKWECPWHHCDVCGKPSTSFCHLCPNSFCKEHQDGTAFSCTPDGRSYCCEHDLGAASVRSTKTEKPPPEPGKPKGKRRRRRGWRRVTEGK

Kallikrein-7 = Kallikrein-7 (Homo sapiens, UniProt P49862); test: Fluorescence Intensity-based biochemical primary high throughput dose response assay to identify activators of kallikrein-7 (K7) zymogen.
Cytochrome P450 2C9 = Cytochrome P450 2C9 (Homo sapiens, UniProt P11712)
Cytochrome P450 3A4 = Cytochrome P450 3A4 (Homo sapiens, UniProt P08684);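 note: CYP3A4 tested as one member of a cytochrome P450 panel screen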
[11] = enhancers of respiration in Yfh1-depleted yeast, dose response, Friedreich's ataxia, plus single-dose screen (AID 1465); type: functional;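 note: yeast depleted of Yfh1p frataxin homolog grown on glycerol needing respiration; WST-1 tetrazolium dye reduction as measure of cellular dehydrogenase metabolic activity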
[12] = target: T5, Mannose-6-phosphate isomerase (Homo sapiens, UniProt P34949); test: human PMI inhibitors, high substrate, primary screen, biochemical, fluorescence intensity, high mannose 6-phosphate (AID 1220)
T5 sequence (P34949 whole entry): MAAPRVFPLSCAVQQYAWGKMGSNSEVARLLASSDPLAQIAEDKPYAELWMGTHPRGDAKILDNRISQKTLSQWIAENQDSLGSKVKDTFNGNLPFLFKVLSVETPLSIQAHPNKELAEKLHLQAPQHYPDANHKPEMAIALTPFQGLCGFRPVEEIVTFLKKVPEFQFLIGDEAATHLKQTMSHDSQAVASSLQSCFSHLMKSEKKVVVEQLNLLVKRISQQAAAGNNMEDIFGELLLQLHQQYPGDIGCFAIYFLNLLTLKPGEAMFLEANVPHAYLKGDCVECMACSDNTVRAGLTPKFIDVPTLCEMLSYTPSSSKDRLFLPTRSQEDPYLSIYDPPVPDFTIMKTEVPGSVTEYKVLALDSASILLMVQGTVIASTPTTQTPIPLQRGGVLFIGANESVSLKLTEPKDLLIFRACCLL

Sequence of Kallikrein-7 (P49862 whole entry): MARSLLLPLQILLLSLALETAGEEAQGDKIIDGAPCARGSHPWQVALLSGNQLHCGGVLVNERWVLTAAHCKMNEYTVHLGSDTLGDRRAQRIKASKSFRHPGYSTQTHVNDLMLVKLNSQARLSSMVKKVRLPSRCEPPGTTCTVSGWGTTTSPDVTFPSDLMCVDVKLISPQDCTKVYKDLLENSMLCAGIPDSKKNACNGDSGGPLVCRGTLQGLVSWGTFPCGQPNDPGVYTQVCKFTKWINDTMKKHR
T1 sequence (P98170 whole entry): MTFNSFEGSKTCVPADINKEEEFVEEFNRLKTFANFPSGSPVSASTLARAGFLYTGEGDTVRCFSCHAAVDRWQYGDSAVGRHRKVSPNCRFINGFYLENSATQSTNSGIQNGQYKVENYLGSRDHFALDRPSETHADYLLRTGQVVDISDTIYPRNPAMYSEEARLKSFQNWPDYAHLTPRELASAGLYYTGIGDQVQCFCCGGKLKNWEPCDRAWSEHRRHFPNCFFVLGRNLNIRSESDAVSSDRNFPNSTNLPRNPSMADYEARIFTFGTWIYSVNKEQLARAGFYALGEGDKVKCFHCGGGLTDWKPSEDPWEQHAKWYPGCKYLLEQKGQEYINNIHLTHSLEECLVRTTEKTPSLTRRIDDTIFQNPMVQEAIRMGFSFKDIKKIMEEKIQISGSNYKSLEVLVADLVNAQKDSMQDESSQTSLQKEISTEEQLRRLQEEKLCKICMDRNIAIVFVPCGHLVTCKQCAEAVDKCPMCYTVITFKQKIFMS
Sequence of Cytochrome P450 3A4 (P08684 whole entry): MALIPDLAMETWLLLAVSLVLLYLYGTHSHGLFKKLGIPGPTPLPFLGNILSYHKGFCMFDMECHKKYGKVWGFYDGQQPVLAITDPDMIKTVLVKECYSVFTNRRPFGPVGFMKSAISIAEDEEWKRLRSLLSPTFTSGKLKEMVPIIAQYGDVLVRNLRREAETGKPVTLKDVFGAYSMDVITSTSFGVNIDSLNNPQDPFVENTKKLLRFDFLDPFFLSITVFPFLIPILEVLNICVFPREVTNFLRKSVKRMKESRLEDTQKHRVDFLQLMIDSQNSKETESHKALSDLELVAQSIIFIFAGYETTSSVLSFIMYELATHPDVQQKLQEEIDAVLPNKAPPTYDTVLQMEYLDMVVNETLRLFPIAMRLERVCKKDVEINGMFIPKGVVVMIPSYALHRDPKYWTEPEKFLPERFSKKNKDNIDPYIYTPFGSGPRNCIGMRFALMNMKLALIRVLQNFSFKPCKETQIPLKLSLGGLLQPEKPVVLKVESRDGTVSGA
Sequence of Cytochrome P450 2C9 (P11712 whole entry): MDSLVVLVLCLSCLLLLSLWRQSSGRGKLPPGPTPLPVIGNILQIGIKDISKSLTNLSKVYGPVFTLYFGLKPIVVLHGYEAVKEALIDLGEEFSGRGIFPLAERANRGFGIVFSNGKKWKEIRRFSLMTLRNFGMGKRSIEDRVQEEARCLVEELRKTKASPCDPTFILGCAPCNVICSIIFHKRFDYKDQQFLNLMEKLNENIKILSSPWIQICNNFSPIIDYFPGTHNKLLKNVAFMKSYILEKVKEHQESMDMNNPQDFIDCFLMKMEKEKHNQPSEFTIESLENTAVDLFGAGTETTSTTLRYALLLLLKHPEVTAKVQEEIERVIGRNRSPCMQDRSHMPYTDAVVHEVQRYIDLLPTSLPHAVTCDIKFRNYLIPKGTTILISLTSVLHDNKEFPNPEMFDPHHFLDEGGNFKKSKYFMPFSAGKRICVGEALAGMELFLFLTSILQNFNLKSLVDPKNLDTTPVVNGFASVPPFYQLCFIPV

SMILES: COc1ccc2c3c(n(C)c2c1)[C@H](CO)N(C(=O)Nc1ccc(F)cc1)CC31CCN(C)CC1
- AC50 [1]: 2.87 µM (active)
- AC50 [2]: 2.67 µM (active)
- AC50 [3]: 54.1 µM (active)
- AC50 [4]: 4.61 µM (active)
- AC50 [5]: 4.11 µM (active)

SMILES: COc1ccc(S(=O)(=O)N2CCCC2)c(C)c1C
- IC50 [6]: > 100 µM (inactive)
- IC50 [7]: > 100 µM (not active)

SMILES: Oc1c2nc3ccccc3c-2ncn1CCN1CCOCC1
- IC50 [8]: > 122 µM (inactive)
- IC50 [9]: > 122 µM (inactive)

SMILES: CCN(CC)CCNC(=O)/C(=C\c1cccn1C)NC(=O)c1cccs1
- IC50 [6]: > 100 µM (inactive)
- IC50 [7]: > 100 µM (not active)
- AC50 [10]: > 20 µM (inactive)

SMILES: COc1cc(NC(=O)COc2ccccc2Cl)ccc1NC(=O)c1cccs1
- EC50 (Kallikrein-7): 8.31 µM (active)

SMILES: C=CCNc1sc(C(=O)c2ccc(C)cc2)c(N)c1C#N
- AC50 (Cytochrome P450 2C9): inconclusive
- EC50 (Kallikrein-7): 9.46 µM (active)
- AC50 (Cytochrome P450 3A4): 31.6 µM (inconclusive)

SMILES: O=C(c1ccc(S(=O)(=O)NCC2CCCO2)cc1)N1CCN(c2cccc(Cl)c2)CC1 (stereo unspecified)
- IC50 [6]: > 100 µM (inactive)
- IC50 [7]: > 100 µM (not active)

SMILES: O=[N+]([O-])c1ccc(N2CCCC2)cc1N/N=C1\CN2CCC1CC2
- EC50 [11]: > 100 µM (active)

SMILES: O=C(C[C@H]1C[C@H](C(=O)N2CCCCC2)[C@@]2(CCc3ccccc3)c3[nH]c4cc(-c5ccco5)ccc4c3CCN2C1=O)NCCN1CCOCC1
- EC50 (Kallikrein-7): 8.82 µM (active)

SMILES: Cc1ccc(O)c(/N=C/c2ccc(C)s2)c1
- IC50 [12]: > 50 µM (not active)

SMILES: O=C(Nc1ccc(F)cc1)N1CCCCN2[C@H](CO)[C@H](c3ccc(C#Cc4ccccc4)cc3)[C@@H]2C1
- AC50 [1]: 0.0167 µM (active)
- AC50 [2]: < 0.3 µM (active)
- AC50 [3]: 80.3 µM (active)
- AC50 [4]: 0.0214 µM (active)
- AC50 [5]: 0.0201 µM (active)
